Reference: patent publication US8673587B2, “Methods for identifying allosteric and other novel acyl-coenzyme A:cholesterol acyltransferase inhibitors” (Trustees of Dartmouth College, priority 2010, dated 2014)
Blank lines part the entries; values can stand above or below the molecule they belong to.

Legend:
[1] = target: T1, histidine-tagged recombinant human ACAT1 (Homo sapiens, UniProt P35610, M1L); experiment: Steroid (pregnenolone/DHEA/E2) esterification in mixed micelles, ACAT1 as enzyme source; format: biochemical; settings: for ACAT1 substrate activity: 1 μM [3H]-steroid
T1 construct: hACAT-1 cDNA (nucleotide residues 1397-3046, a total of 550 amino acids); made in house; partially purified on a nickel column
T1 sequence (P35610 1-550 M1L): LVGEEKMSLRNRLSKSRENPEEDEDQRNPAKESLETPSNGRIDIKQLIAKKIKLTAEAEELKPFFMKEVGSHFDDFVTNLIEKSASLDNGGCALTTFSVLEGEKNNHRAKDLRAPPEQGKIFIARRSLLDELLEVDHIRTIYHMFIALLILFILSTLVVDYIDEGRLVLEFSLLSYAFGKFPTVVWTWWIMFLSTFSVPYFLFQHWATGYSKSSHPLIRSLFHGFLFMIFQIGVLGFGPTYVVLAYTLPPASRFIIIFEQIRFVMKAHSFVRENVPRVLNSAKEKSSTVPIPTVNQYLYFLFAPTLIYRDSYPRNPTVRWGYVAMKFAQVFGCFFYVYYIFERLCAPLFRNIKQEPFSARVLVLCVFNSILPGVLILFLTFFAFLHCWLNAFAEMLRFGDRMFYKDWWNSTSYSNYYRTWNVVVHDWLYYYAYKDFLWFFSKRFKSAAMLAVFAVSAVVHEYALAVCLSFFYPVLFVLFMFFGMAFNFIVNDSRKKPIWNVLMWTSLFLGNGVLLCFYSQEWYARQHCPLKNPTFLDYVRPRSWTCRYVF
Source text: (§1) The method of the present invention was developed in experiments using a mixed micelle enzyme assay system. […] A candidate ACAT inhibitor is an allosteric inhibitor if it is shown in the method of the present invention to inhibit cholesterol-dependent pregnenolone esterification but not to inhibit the basal pregnenolone esterification when cholesterol is absent in the assay mixture. […] In the assay system of the present invention, the source of ACAT was histidine-tagged recombinant human ACAT1 or human ACAT2, stably expressed in Chinese hamster ovary (CHO) cells that lack endogenous ACAT activity. However, one of skill in the art could employ other suitable mammalian cell systems as needed. The enzyme preparations used in the present method were partially purified through the use of nickel column chromatography, as described previously (Liu et al. 2005. Biochem. J. 391:389-397), using cells that stably expressing histidine-tagged recombinant human ACAT1 or human ACAT2 as the enzyme source.
(§2) In developing the method of the present invention, a series of experiments was performed. Pregnenolone is one compound that contains the classical A, B, C, D steroid rings as well as a 3 beta-OH moiety. Based on its structure, pregnenolone may be an ACAT substrate. However, this possibility had not previously been tested experimentally. In the present invention, the activity of pregnenolone was tested by using radiolabeled pregnenolone ([^3H]-pregnenolone) in a mixed micelle enzyme assay mixture that contained the detergent taurocholate (or CHAPS), phosphatidylcholine, and oleyl-coenzyme A bound to bovine serum albumin (BSA). The enzyme used was histidine-tagged human ACAT1 or human ACAT2. The esterification of pregnenolone (i.e., formation of pregnenolone oleate) was monitored by performing lipid extraction to isolate [^3H]-pregnenolone oleate and [^3H]-pregnenolone. [^3H]-pregnenolone oleate was then separated from [^3H]-pregnenolone by using conventional thin-layer chromatography. Levels of [^3H]-pregnenolone oleate formed was measured using a scintillation counter. […] Thus, using ACAT1 as the enzyme source, the esterification of DHEA was examined (FIG. 1C).
A pregnenolone substrate saturation curve was then constructed, with or without addition of cholesterol to the assay mixture, using ACAT1 as the enzyme source (FIG. 2A). […] Then, a DHEA substrate saturation curve was constructed, with cholesterol present.
Further experiments were performed to examine the effect of adding various non-oxysterols, at a concentration of 0.32 mM, on pregnenolone esterification in vitro, with ACAT1 as the enzyme source.
(§3) To assay the enzyme, the pregnenolone/detergent/PC micelles and the cholesterol/detergent/PC micelles were prepared individually as follows: the radiolabeled pregnenolone/PC mixture or the cholesterol/PC mixture was prepared as described previously (Shi et al. 1989. Biochim. Biophys. Acta 982:187-195) and lyophilized to remove residual organic solvents. After lyophilization, the detergent sodium taurocholate (or other detergent such as CHAPS) in Buffer A was added to reach a final concentration of 10 mg/ml. The mixture was purged with nitrogen, followed by sonication until this mixture was clear. The pregnenolone/PC micelles were mixed with the cholesterol/PC micelles such that the cholesterol concentration is at 0 mM or at 0.32 mM, and the radioactive pregnenolone concentration is at 1 μM (specific activity 20 Ci/mmol).

[2] = target: T2, histidine-tagged recombinant human ACAT2 (Homo sapiens, UniProt O75908); experiment: Pregnenolone esterification in mixed micelles, ACAT2 as enzyme source; format: biochemical; settings: 1 μM [3H]-pregnenolone
T2 construct: made in house; partially purified on a nickel column
T2 sequence (O75908 1-522): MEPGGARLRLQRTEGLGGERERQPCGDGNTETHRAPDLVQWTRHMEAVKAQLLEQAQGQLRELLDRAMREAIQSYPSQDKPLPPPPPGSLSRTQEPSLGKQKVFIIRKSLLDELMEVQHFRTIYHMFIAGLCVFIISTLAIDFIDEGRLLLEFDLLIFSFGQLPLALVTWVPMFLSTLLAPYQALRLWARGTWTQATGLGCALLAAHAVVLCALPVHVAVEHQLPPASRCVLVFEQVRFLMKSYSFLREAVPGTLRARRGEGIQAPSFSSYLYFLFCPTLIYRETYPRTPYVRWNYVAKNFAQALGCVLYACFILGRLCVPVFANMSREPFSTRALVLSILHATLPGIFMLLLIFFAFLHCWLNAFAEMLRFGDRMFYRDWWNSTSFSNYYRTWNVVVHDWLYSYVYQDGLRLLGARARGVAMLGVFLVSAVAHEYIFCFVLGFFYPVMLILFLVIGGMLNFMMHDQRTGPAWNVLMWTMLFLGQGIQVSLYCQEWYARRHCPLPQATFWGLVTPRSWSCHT
Source text: as §1, §2, §3

[3] = target: T3, ACAT1 (Homo sapiens, UniProt P35610, M1L); experiment: Cholesterol esterification in vitro ([3H]-oleoyl-CoA/BSA labeled substrate), cholesterol substrate saturation curve; format: biochemical; settings: pregnenolone added at 5 μM
T3 construct: hACAT-1 cDNA (nucleotide residues 1397-3046, a total of 550 amino acids); made in house; partially purified on a nickel column
T3 sequence (P35610 1-550 M1L): T1 sequence (P35610 1-550 M1L)
Source text: (§6) ACAT1 was the enzyme source. [^3H]-oleoyl-CoA/BSA was the labeled substrate.

[4] = system: amyloid precursor protein (APP); settings: animal models for AD; cited from earlier work
[5] = fed to animals; cited from earlier work
[6] = target: T4, HisACAT1/FLAG (recombinant hACAT1) (Homo sapiens, UniProt P35610, M1L); experiment: Steady-state enzyme kinetics with fatty acyl-CoA as variable substrate, purified HisACAT1/FLAG; format: biochemical; settings: constant, saturating cholesterol in CHAPS/PC mixed micelles
T4 construct: hACAT1 contains 550 amino acids; made in house
T4 sequence (P35610 1-550 M1L): T1 sequence (P35610 1-550 M1L)
Protocol: (§4) To monitor enzyme activity during enzyme purification, the enzyme solubilized in the detergent CHAPS was assayed in preformed taurocholate/cholesterol/phosphatidylcholine (PC) mixed micelles as described previously (Chang, C. C. et al. 1998. J. Biol. Chem. 273:35132-35141), with a final concentration of taurocholate at 9.3 mM, PC at 11.2 mM, and cholesterol at 1.6 mM. The amount of mixed micelle solution was used to dilute the detergent presented in the enzyme preparation, so the final CHAPS/PC molar ratio was less than 0.4. The fatty acyl-CoA substrate saturation curves and cholesterol substrate saturation curves were performed under the same conditions as described previously (Chang, C. C. et al. 1998. supra).
(§5) Prior to conducting binding experiments, steady-state enzyme kinetic experiments were conducted using purified HisACAT1/FLAG as the enzyme source and either oleoyl- (18:1) CoA or stearoyl- (18:0) CoA as the variable substrate, at a constant, saturating level of cholesterol in the CHAPS/PC mixed micelles.

[7] = target: T4, HisACAT1/FLAG (recombinant hACAT1); experiment: Ligand binding by change in intrinsic (tryptophan) fluorescence of HisACAT1/FLAG
Source text: Fluorescence measurements were generated using an ISS PC1 photocounting fluorescence spectrophotometer (model 90095). This instrument has continuously reproducible slits ranging from 0.4 to 32 nm band-pass. The excitation slit width was set at 2 nm. The wavelength for excitation was set at 295 nm in order to minimize the contribution of tyrosine residues to the fluorescence. Purified HisACAT1/FLAG was concentrated using 30K AMICON centrifugal filters such that the final concentration of the protein was 100-200 ng/μL (1.5-3 μM). Purified protein was stored at −80° C. until used. Unless stated otherwise, the fluorescence measurements were performed at pH 7.8 with 50 mM potassium phosphate, 0.5M KCl, and 8.13 mM CHAPS. Sterol (cholesterol, epicholesterol, coprostanol, and epicoprostanol) was prepared as CHAPS/PC/sterol mixed micelles (with CHAPS at 8.13 mM, PC at 4 mM, and with varying concentrations of sterols as indicated) and stored at 20° C. in the dark until usage. The fatty acyl-CoAs were dissolved in 20 mM sodium acetate at pH 6.4 as a 2 mM stock and stored at −80° C. until used. Before the experiment started, all reagents were kept on ice in the dark. To begin the experiment, 50 μL of mixed micelles without or with sterols was added into a HELLMA microcuvette with 3 mm light path. Twenty-five microliters of ACAT1 protein (in 8.13 mM CHAPS and 0.5 M KCl) was then added and rapidly mixed. Fluorescence was monitored within 15 seconds of adding the enzyme. The sample compartment of the instrument was maintained at 20° C. The fluorescence emission spectrum was scanned in 2 minutes between 310 and 410 nm. The differences in fluorescence intensity at 10 intervals within 325-335 nm were averaged in order to calculate the ΔF value between the ligated protein vs that of the unligated protein.
Binding studies were subsequently conducted by monitoring the effect of increasing concentrations of oleoyl-CoA on the intrinsic fluorescence of HisACAT1/FLAG. […] However, the maximal change in the peak of the spectrum was much smaller (5% with respect to the unliganded protein). […] The data was analyzed for a simple bimolecular dissociation equilibrium using the PRISM program.
Binding experiments were subsequently performed by monitoring the effect of increasing concentrations of cholesterol, from 10 to 600 μM, on the intrinsic fluorescence of HisACAT1/FLAG. […] It was estimated that the cholesterol concentration that caused half-maximal spectral change was 35 μM. […] The changes in the intrinsic fluorescence of ACAT1 caused by cholesterol, epicholesterol, coprostanol, or epicoprostanol as the ligand were also compared.

[8] = substrate: CC(C)CCC[C@@H](C)[C@H]1CC[C@H]2[C@@H]3CC=C4C[C@@H](O)CC[C@]4(C)[C@H]3CC[C@]12C; experiment: Cholesterol esterification in vitro ([3H]-oleoyl-CoA/BSA labeled substrate), cholesterol substrate saturation curve; format: biochemical, human; settings: other: ACAT1
Source text: as §6

[9] = substrate: CCCCCCCC/C=C\CCCCCCCC(=O)SCCNC(=O)CCNC(=O)[C@H](O)C(C)(C)COP(=O)(O)OP(=O)(O)OC[C@H]1O[C@@H](n2cnc3c(N)ncnc32)[C@H](O)[C@@H]1OP(=O)(O)O; experiment: Steady-state enzyme kinetics with fatty acyl-CoA as variable substrate, purified HisACAT1/FLAG; format: biochemical, human; settings: other: constant, saturating cholesterol in CHAPS/PC mixed micelles
Protocol: as §4, §5

[10] = substrate: CCCCCCCCCCCCCCCCCC(=O)SCCNC(=O)CCNC(=O)[C@H](O)C(C)(C)COP(=O)(O)OP(=O)(O)OC[C@H]1O[C@@H](n2cnc3c(N)ncnc32)[C@H](O)[C@@H]1OP(=O)(O)O; experiment: as above; format: biochemical, human; settings: other: constant, saturating cholesterol in CHAPS/PC mixed micelles
Protocol: as §4, §5

[11] = presence of excess cholesterol (0.32 mM)

Molecule: CC(=O)[C@H]1CC[C@H]2[C@@H]3CC=C4C[C@@H](O)CC[C@]4(C)[C@H]3CC[C@]12C [pregnenolone]
estimated Km, fold lower than that of cholesterol ([1]; ACAT1, cholesterol present): 600 fold | ACAT1 substrate activity ([1]; absence of cholesterol): very poor substrate | ACAT1 substrate activity [1, 11]: much better substrate | Km ([1]; with cholesterol present in vitro (0.32 mM), read-out: apparent Km as ACAT1 substrate): ~1.2 µM | Km as ACAT1 substrate ([1]; without cholesterol present in vitro): too high to be measurable | ACAT2 substrate activity ([2]; absence of cholesterol): very poor substrate | ACAT2 substrate activity [2, 11]: much better substrate | inhibition of cholesterol esterification [3]: 10-15%

Molecule: CC(C)c1cc(C(C)C)c(CC(=O)NS(=O)(=O)Oc2c(C(C)C)cccc2C(C)C)c(C(C)C)c1 [CI1011]
mature/immature ratio of human APP [4]: decreased | VLDL-triglyceride content [5]: reduces the VLDL-triglyceride content

Vmax, fold higher than for stearoyl-CoA [6]: 2.4 fold | maximal increase in fluorescence peak height with respect to unliganded ACAT1 protein ([7]; excitation 295 nm, peak 330 nm): approximately 32% | Kd ([7]; simple bimolecular dissociation equilibrium, PRISM, read-out: dissociation constant): 1900 nM
Molecule: CCCCCCCC/C=C\CCCCCCCC(=O)SCCNC(=O)CCNC(=O)[C@H](O)C(C)(C)COP(=O)(O)OP(=O)(O)OC[C@H]1O[C@@H](n2cnc3c(N)ncnc32)[C@H](O)[C@@H]1OP(=O)(O)O [oleoyl-CoA]

B1: ACAT1 (Homo sapiens; M1L) (protein)
chain: T1 sequence (P35610 1-550 M1L)
notes: hACAT-1 cDNA (nucleotide residues 1397-3046, a total of 550 amino acids); made in house; partially purified on a nickel column
Km [8]: 300 µM

B2: HisACAT1/FLAG (recombinant hACAT1) (Homo sapiens; M1L) (protein)
chain: T1 sequence (P35610 1-550 M1L)
notes: hACAT1 contains 550 amino acids; made in house
Km [9]: 1.3 µM | Km [10]: 6.4 µM
